Laboratory results as given in PubChem BioAssay (NCI).
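Interpolation was linear, between the two tested concentrations surrounding the appropriate level; five concentrations were tested over 48 hours in 96-well plates. GI50 marks 50% less growth. TGI is the concentration that stops growth completely.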

Key:
Test in all cases: NCI-60 cell line screen, 48 h
UO-31 renal = test system: UO-31 renal
MDA-MB-468 breast = test system: MDA-MB-468 breast
IGROV1 ovarian = test system: IGROV1 ovarian
SK-MEL-28 melanoma = test system: SK-MEL-28 melanoma
SK-MEL-2 melanoma = test system: SK-MEL-2 melanoma
OVCAR-8 ovarian = test system: OVCAR-8 ovarian
HOP-92 NSCLC = test system: HOP-92 NSCLC
HL-60(TB) leukemia = test system: HL-60(TB) leukemia
NCI/ADR-RES ovarian = test system: NCI/ADR-RES ovarian
MDA-MB-435 = test system: MDA-MB-435
LOX IMVI melanoma = test system: LOX IMVI melanoma
MALME-3M melanoma = test system: MALME-3M melanoma
SNB-19 CNS = test system: SNB-19 CNS
SF-268 CNS = test system: SF-268 CNS
SK-OV-3 ovarian = test system: SK-OV-3 ovarian
TK-10 renal = test system: TK-10 renal
MDA-MB-231 breast = test system: MDA-MB-231 breast
SK-MEL-5 melanoma = test system: SK-MEL-5 melanoma
786-0 renal = test system: 786-0 renal
UACC-62 melanoma = test system: UACC-62 melanoma
CAKI-1 renal = test system: CAKI-1 renal
MOLT-4 leukemia = test system: MOLT-4 leukemia
SN12C renal = test system: SN12C renal
SW-620 colon = test system: SW-620 colon
ACHN renal = test system: ACHN renal
NCI-H23 lung = test system: NCI-H23 lung
NCI-H460 lung = test system: NCI-H460 lung
A549 NSCLC = test system: A549 NSCLC
RXF 393 renal = test system: RXF 393 renal
OVCAR-3 ovarian = test system: OVCAR-3 ovarian
HCT-116 colon = test system: HCT-116 colon
HCT-15 colon = test system: HCT-15 colon
SF-295 CNS = test system: SF-295 CNS
U251 CNS = test system: U251 CNS
SR leukemia = test system: SR leukemia
PC-3 prostate = test system: PC-3 prostate
UACC-257 melanoma = test system: UACC-257 melanoma
OVCAR-5 ovarian = test system: OVCAR-5 ovarian
NCI-H522 lung = test system: NCI-H522 lung
OVCAR-4 ovarian = test system: OVCAR-4 ovarian
A498 renal = test system: A498 renal
HS 578T breast = test system: HS 578T breast
DU-145 prostate = test system: DU-145 prostate
NCI-H226 lung = test system: NCI-H226 lung
HOP-62 NSCLC = test system: HOP-62 NSCLC
EKVX NSCLC = test system: EKVX NSCLC
KM12 colon = test system: KM12 colon
SF-539 CNS = test system: SF-539 CNS
K-562 leukemia = test system: K-562 leukemia
HCC-2998 colon = test system: HCC-2998 colon
RPMI-8226 leukemia = test system: RPMI-8226 leukemia
M14 melanoma = test system: M14 melanoma
CCRF-CEM leukemia = test system: CCRF-CEM leukemia

SMILES: CN(C)CCn1c2ccccc2c2nc3ccc([N+](=O)[O-])cc3nc21
- GI50 (UO-31 renal): 248 nM
- TGI (UO-31 renal): 1990 nM
- GI50 (MDA-MB-468 breast): 514 nM
- TGI (MDA-MB-468 breast): 2270 nM
- GI50 (IGROV1 ovarian): 1070 nM
- TGI (IGROV1 ovarian): 9460 nM
- GI50 (SK-MEL-28 melanoma): 2540 nM
- TGI (SK-MEL-28 melanoma): > 100000 nM
- GI50 (SK-MEL-2 melanoma): 3270 nM
- TGI (SK-MEL-2 melanoma): 7640 nM
- GI50 (OVCAR-8 ovarian): 907 nM
- TGI (OVCAR-8 ovarian): 5510 nM
- GI50 (HOP-92 NSCLC): 197 nM
- TGI (HOP-92 NSCLC): 2290 nM
- GI50 (HL-60(TB) leukemia): 256 nM
- TGI (HL-60(TB) leukemia): 698 nM
- GI50 (NCI/ADR-RES ovarian): 1280 nM
- TGI (NCI/ADR-RES ovarian): 11900 nM
- GI50 (MDA-MB-435): 2300 nM
- TGI (MDA-MB-435): > 100000 nM
- GI50 (LOX IMVI melanoma): 541 nM
- TGI (LOX IMVI melanoma): 1950 nM
- GI50 (MALME-3M melanoma): 709 nM
- TGI (MALME-3M melanoma): 3410 nM
- GI50 (SNB-19 CNS): 2320 nM
- TGI (SNB-19 CNS): 10400 nM
- GI50 (SF-268 CNS): 1750 nM
- TGI (SF-268 CNS): 13200 nM
- GI50 (SK-OV-3 ovarian): 2490 nM
- TGI (SK-OV-3 ovarian): 7500 nM
- GI50 (TK-10 renal): 2350 nM
- TGI (TK-10 renal): 6370 nM
- GI50 (MDA-MB-231 breast): 1870 nM
- TGI (MDA-MB-231 breast): 5700 nM
- GI50 (SK-MEL-5 melanoma): 666 nM
- TGI (SK-MEL-5 melanoma): 2050 nM
- GI50 (786-0 renal): 1310 nM
- TGI (786-0 renal): 6550 nM
- GI50 (UACC-62 melanoma): 928 nM
- TGI (UACC-62 melanoma): 2900 nM
- GI50 (CAKI-1 renal): 368 nM
- TGI (CAKI-1 renal): 2710 nM
- GI50 (MOLT-4 leukemia): 410 nM
- TGI (MOLT-4 leukemia): 2900 nM
- GI50 (SN12C renal): 813 nM
- TGI (SN12C renal): 4620 nM
- GI50 (SW-620 colon): 691 nM
- TGI (SW-620 colon): > 100000 nM
- GI50 (ACHN renal): 322 nM
- TGI (ACHN renal): 1100 nM
- GI50 (NCI-H23 lung): 1200 nM
- TGI (NCI-H23 lung): 3640 nM
- GI50 (NCI-H460 lung): 395 nM
- TGI (NCI-H460 lung): 2190 nM
- GI50 (A549 NSCLC): 438 nM
- TGI (A549 NSCLC): 1830 nM
- GI50 (RXF 393 renal): 1830 nM
- TGI (RXF 393 renal): 5830 nM
- GI50 (OVCAR-3 ovarian): 2010 nM
- TGI (OVCAR-3 ovarian): 7340 nM
- GI50 (HCT-116 colon): 752 nM
- TGI (HCT-116 colon): 5940 nM
- GI50 (HCT-15 colon): 725 nM
- TGI (HCT-15 colon): 4060 nM
- GI50 (SF-295 CNS): 477 nM
- TGI (SF-295 CNS): 3090 nM
- GI50 (U251 CNS): 772 nM
- TGI (U251 CNS): 3960 nM
- GI50 (SR leukemia): 322 nM
- TGI (SR leukemia): 1690 nM
- GI50 (PC-3 prostate): 1140 nM
- TGI (PC-3 prostate): > 100000 nM
- GI50 (UACC-257 melanoma): 1860 nM
- TGI (UACC-257 melanoma): 5950 nM
- GI50 (OVCAR-5 ovarian): 2310 nM
- TGI (OVCAR-5 ovarian): 6510 nM
- GI50 (NCI-H522 lung): 988 nM
- TGI (NCI-H522 lung): 4220 nM
- GI50 (OVCAR-4 ovarian): 2760 nM
- TGI (OVCAR-4 ovarian): > 100000 nM
- GI50 (A498 renal): 1740 nM
- TGI (A498 renal): 4560 nM
- GI50 (HS 578T breast): 2160 nM
- TGI (HS 578T breast): > 100000 nM
- GI50 (DU-145 prostate): 1710 nM
- TGI (DU-145 prostate): 9910 nM
- GI50 (NCI-H226 lung): 1270 nM
- TGI (NCI-H226 lung): 3260 nM
- GI50 (HOP-62 NSCLC): 1080 nM
- TGI (HOP-62 NSCLC): 4760 nM
- GI50 (EKVX NSCLC): 1600 nM
- TGI (EKVX NSCLC): 5000 nM
- GI50 (KM12 colon): 1530 nM
- TGI (KM12 colon): 9150 nM
- GI50 (SF-539 CNS): 645 nM
- TGI (SF-539 CNS): 3850 nM
- GI50 (K-562 leukemia): 931 nM
- TGI (K-562 leukemia): 11300 nM
- GI50 (HCC-2998 colon): 1470 nM
- TGI (HCC-2998 colon): 3720 nM
- GI50 (RPMI-8226 leukemia): 1230 nM
- TGI (RPMI-8226 leukemia): 4300 nM
- GI50 (M14 melanoma): 1710 nM
- TGI (M14 melanoma): > 100000 nM
- GI50 (CCRF-CEM leukemia): 667 nM
- TGI (CCRF-CEM leukemia): 4370 nM
